Common to all, as to assay type: cell-based, human rhinovirus
Assay [1] deals with rhinovirus-T39. Nature of the assay: antiviral activity of HuIFN-α versus rhinovirus in presence and absence of menthol (MTS method, WISH cells). The following applies: menthol 1:800. The protocol: Rhinovirus 1A, rhinovirus 15 and rhinovirus 39 were titrated according to the tetrazolium salt (MTS)-method (Berg et al., 1990) (Hansen et al., 1989)). WISH cells were seeded in a micro tray at 3000 cells per well and incubated at 37° C., 5% CO2 overnight; the following morning the medium was replaced with 10-fold dilutions of either rhinovirus 1A, rhinovirus 15 or rhinovirus 39, respectively, in fresh medium and the trays were incubated 4-5 days at 33° C.; a microscopical examination confirmed that the CytoPathogenic Effect (CPE) was fully developed (CPE equal to 100%). The minimal amount of virus (i.e.: the highest dilution of the virus in question) which produced 100% destruction was used as “challenge virus” in the subsequent experiments. To quantitate the CPE in terms of % destruction, MTS (Berg and Owen, 2003) was added to all cultures and after 3 h incubation at 37° C. (without CO2) the trays were read in a scanner as previously described (Berg et al., 1990). […]
The results were graphed with the concentration of interferon on the horizontal scale and the OD492 readings on the vertical scale.
For orientation: Tetrazolium assays rely on reduction of a dye to a coloured formazan, in cell work by metabolically active cells.

Assay [2] has as its system rhinovirus T39. The experiment in a line: rhinovirus titration on WISH cell monolayers in presence or absence of menthol. The conditions noted are these: menthol dilution 1:800; virus dilution range 10^2-10^3; WISH cells (FIG. 2A). The protocol: Rhinovirus 1A, rhinovirus 15 and rhinovirus 39 were titrated according to the tetrazolium salt (MTS)-method (Berg et al., 1990) (Hansen et al., 1989)). WISH cells were seeded in a micro tray at 3000 cells per well and incubated at 37° C., 5% CO2 overnight; the following morning the medium was replaced with 10-fold dilutions of either rhinovirus 1A, rhinovirus 15 or rhinovirus 39, respectively, in fresh medium and the trays were incubated 4-5 days at 33° C.; a microscopical examination confirmed that the CytoPathogenic Effect (CPE) was fully developed (CPE equal to 100%). The minimal amount of virus (i.e.: the highest dilution of the virus in question) which produced 100% destruction was used as “challenge virus” in the subsequent experiments. To quantitate the CPE in terms of % destruction, MTS (Berg and Owen, 2003) was added to all cultures and after 3 h incubation at 37° C. (without CO2) the trays were read in a scanner as previously described (Berg et al., 1990). Control cell cultures, that were not infected with virus, were included in the experiment; the latter gave the highest OD as these cells were not damaged; depending on the concentration of virus added to the different wells, the OD492 varied, accordingly: 100% CPE yielded a low OD (<0.200); 0% CPE corresponding to no infection at all (controls cell) gave a high OD (>1.200). […]

The test system of assay [3] is RHV 1A, 17, and 39A. Nature of the assay: rhinovirus titration in presence of menthol, all three rhinoviruses employed. The protocol:
WISH cells were seeded in a micro tray at 3000 cells per well and incubated at 37° C., 5% CO2 overnight; the following morning the medium was replaced with 10-fold dilutions of either rhinovirus 1A, […], respectively, in fresh medium and the trays were incubated 4-5 days at 33° C.; a microscopical examination confirmed that the CytoPathogenic Effect (CPE) was fully developed (CPE equal to 100%). The minimal amount of virus (i.e.: the highest dilution of the virus in question) which produced 100% destruction was used as “challenge virus” in the subsequent experiments. To quantitate the CPE in terms of % destruction, MTS (Berg and Owen, 2003) was added to all cultures and after 3 h incubation at 37° C. (without CO2) the trays were read in a scanner as previously described (Berg et al., 1990). Control cell cultures, that were not infected with virus, were included in the experiment; the latter gave the highest OD as these cells were not damaged; depending on the concentration of virus added to the different wells, the OD492 varied, accordingly: 100% CPE yielded a low OD (<0.200); 0% CPE corresponding to no infection at all (controls cell) gave a high OD (>1.200). […]

Data on 1 compound can be found in patent publication US20090227670A1, “PHARMACEUTICAL COMPOSITIONS COMPRISING FLAVONOIDS AND MENTHOL” (priority 2002, published 2009).

Consider `CC(C)[C@@H]1CC[C@@H](C)C[C@H]1O` [Menthol, levo-(−)-Menthol], for which the “potentiation of interferon antiviral activity (interferon curve+menthol versus interferon curve)” value in assay [1] (interferon range 0 to 8 units/ml, HRV T39, similar at 10^-2.5) is recorded as “specific potentiation”. The “protection compared to uninfected control cells” value in assay [1] (HRV T39 at 10^-2, IFN=0 units/ml, WISH cells, OD492 (FIG. 1A)) is on record as 10-15%. Further, the “increase in protection compared to virus controls receiving no menthol” value in assay [2] is on record as ~50%. Further, the protection against rhinovirus result in assay [3] is “protection was seen”.
